In patent US8603493B2, “Carbosilane dendrimers, preparation method thereof and use of same” (Dendrico, S.L., priority 2005, dated 2013):

Key:
[1] = test system: peripheral blood mononuclear cells (PBMC); assay: Visual examination of PBMC incubated with dendrimers; format: cell-based, human; conditions: for visual examination of PBMC: 48 hours
Procedure: (§1) The toxicity of dendrimers IM8, IM16, ClNH4, NN, Phe and the commercial controls SF (Superfect) and G4 were tested. Different quantities were taken of each one of them so that the final concentrations with which the cells were incubated were 1 μM, 5 μM, 10 μM, 20 μM and 100 μM.
(§2) The blood came from adult donors or the umbilical cord of health newborns. Said blood was diluted ½ with PBS and it was centrifuged in a Ficoll gradient. After said centrifugation, the PBMC halo was recovered and two subsequent washing-centrifuging cycles were carried out. The resulting PBMC were resuspended in complete culture medium with 10% FCS, antibiotics and glutamine.
(§3) 100 μl of 10% complete medium of foetal calf serum, antibiotics and glutamine were added to a volume of 60 μl of RPMI with the corresponding dendrimer tested. 160 μl were then added to the cells seeded in 340 μl, completing a final volume of 500 μl. The cells were incubated in this way for 48 hours and then the effect of the incubation with the dendrimers was evaluated by its visual examination and by the evaluation of the mitochondrial activity.

[2] = test system: peripheral blood mononuclear cells (PBMC); assay: Mitochondrial activity: MTT on PBMC; format: cell-based, human; conditions: for Cell viability after incubation with dendrimers according to MTT: 48 hours, relative to untreated control; for mitochondrial viability (comparison among dendrimers): increasing concentrations of CBS or SF
Procedure: as §1, §2, §3
A curve of mitochondrial activity was performed of the dendrimer concentration after 48 hours. […] It is a […] test based on the selective capacity of the cells viable for reducing 3-(4,5-dimethylthiazol-2-il)-2,5-diphenyl tetrazolium bromide in insoluble formazan crystals. After 48 hours of incubation of the PBMC with different concentrations of dendrimers in a 96-well plate (100,000/well), the supernatant which contained dendrimer was removed and it was replaced by 200 μl of a culture medium without serum or red phenol (Optimem). To avoid the loss of cells in this step and subsequently of formazan, a modification had been made of the protocol, seeding the PBMC in total human plasma fibronectin (Sigma®) at a concentration of 5-10 μg/ml, so that during the 4-hour incubation they fixed to the bottom of the well. In addition to the 200 μl of Optimem, 20 μl of filtered MTT were added to achieve its sterility (Thiazolyl Blue, Sigma®) in PBS pH 7.4 at a concentration of 5 mg/ml to achieve a final concentration per well of 0.5 mg MTT/ml. After 4 hours of incubation at 37° C. with 5% CO2 atmosphere, the plate was centrifuged at 2000 rpm and the supernatant with the excess MTT that had not reacted was subsequently removed. The formazan crystals were observed under a phase contrast microscope and later dissolved with 200 μl of dimethyl sulfoxide (DMSO). The plate was stirred at 700 rpm in an Eppendorf® stirrer-heater to ensure the correct dissolution of said crystals. The concentration of formazan ([A]) was determined by spectrometry using a plate reader at a wavelength of 570 nm with a reference of 690 nm. The spectrophotometry was calibrated to zero using Optimem without cells. The relative cell viability (%) with respect to the control (untreated cells), based on mitochondrial activity, was calculated based on this formula: [A] test/[A] control×100. Each dendrimer concentration was tested in triplicate, following the guidelines of the ATCC.

[3] = test system: PBMC; assay: Lymphoproliferative test (tritiated thymidine); format: cell-based, human; conditions: 5 days, average of triplicate
Procedure: To evaluate the antigenic capacity of CBS dendrimers, a lymphoproliferative test was performed. The experiment was prepared in triplicate in a 96-well flat bottomed plate (100,000 cells per well in 200 μl of complete human AB medium with antibiotics, glutamine and 10% AB serum). […] After 5 days of incubation at 37° C. with 5% atmosphere of CO2 100 μl of supernatant was removed, then adding 100 μL of a medium with an isotopic intercalating agent of DNA, tritiated thymidine (prepared with 10% AB medium and Thymidine 1/100). The plate was then filtered using a Harvester passing its content through a filter, which was left to dry overnight (approx. 16 hours). After this period, a sheet of Methylex® containing scintillation medium was heat-melted, and it was read in a gamma camera to evaluate the number of counts (greater the counts, more proliferation). The results, which are shown below in Table 8, are expressed as tritiated thymidine counts per minute (cpm). Each result of each concentration was performed in triplicate, the value which appears in the table being the average of the 3. The PHA and the control were tested 12 times.

[4] = test system: PBMC; assay: Staining with Trypan Blue of PBMC treated with dendriplexes or dendrimers; conditions: 72 hours, (+/−)=2/1, IM8 3.93 μM, IM16 1.99 μM, ClNH4 3.98 μM, Phe 1.96 μM, NN 3.94 μM, SF 0.68 μM, G4 100 μM, PPT 0.88 μM (0.34 μM with SF, 1 μM with G4), n = 100 cells per count
[5] = test system: ODN PPT; assay: Stability of the dendriplexes at different pHs; format: physicochemical; conditions: dendriplexes with PPT, 2/1 charge ratio
Procedure: Stability studies were carried out on the complexes a different pHs, to determine how the changes in pH would affect the complex, since there are different anatomic, tissue or cell localizations in which the pH acidifies or alkalinifies. Examples are stomach ambient acid, the alkali of the pancreatic secretions of the small intestine, or at a cellular level, the endosome-lisosome behaviour, where it changes from a physiological pH (7.35-7.45) to an acid pH around 4. It is interesting to know, therefore, in what pH range the DNA complex could be maintained with the different CBS used. The complexes were formed following the habitual process and volumes were added in excess of different solutions at different pHs. Therefore, for each one of dendrimers Phe, ClNH4, NN, IM8 and IM16, according to Example 31, 7 solutions were prepared of dendriplexes formed with PPT, in a 2/1 charge ratio and with the following pHs: […]; 2.7; 4.7; 5.7; 6.4; 7.4; 8: The results produced are shown in the electrophoresis gels which appear in FIG. 4, wherein the height of the normal ODN migration band is shown with arrows in the lower part of the gels. The samples were loaded from left to right following an increasing pH order. No sample was formed in the wells indicated with an X.

Row | SMILES | toxicity for the lymphocytes from the visual observation (comparison) [1] | visual examination of PBMC ([1]; 1 μM) | visual examination of PBMC ([1]; 5 μM) | Cell viability after incubation with dendrimers according to MTT ([2]; 1 μM) | Cell viability after incubation with dendrimers according to MTT ([2]; 5 μM) | Cell viability after incubation with dendrimers according to MTT ([2]; 10 μM) | Cell viability after incubation with dendrimers according to MTT ([2]; 20 μM) | Cell viability after incubation with dendrimers according to MTT ([2]; 100 μM) | mitochondrial viability (comparison among dendrimers) [2] | Measurement of the scintillation counter (tritiated thymidine counts) ([3]; 2 μM) | Measurement of the scintillation counter (tritiated thymidine counts) ([3]; 5 μM) | TB+ (%), cells stained with Trypan Blue [4] | stability of dendrimer-ODN complex at the pHs tested ([5]; pHs 2.8, 2.7, 4.7, 5.7, 6.4, 7.4, 8) | pH at which the dendrimer-ODN complex is labile / dissociated [5] | visual examination of PBMC ([1]; 10 μM)
1 | CN(CCO[Si](C)(C)CCC[Si](C)(CCC[Si](CCC[Si](C)(CCC[Si](C)(C)OCCN(C)CC[N+](C)(C)C)CCC[Si](C)(C)OCCN(C)CC[N+](C)(C)C)(CCC[Si](C)(CCC[Si](C)(C)OCCN(C)CC[N+](C)(C)C)CCC[Si](C)(C)OCCN(C)CC[N+](C)(C)C)CCC[Si](C)(CCC[Si](C)(C)OCCN(C)CC[N+](C)(C)C)CCC[Si](C)(C)OCCN(C)CC[N+](C)(C)C)CCC[Si](C)(C)OCCN(C)CC[N+](C)(C)C)CC[N+](C)(C)C.[I-].[I-].[I-].[I-].[I-].[I-].[I-].[I-] [NN, 2G-[Si(O(CH2)2N(Me)(CH2)2NMe3^+I^−)]8] | least toxic | O.K | O.K | 87% | 68% | 66% | 32% | 9% | greater mitochondrial viability | 145 cpm | 160 cpm | 10.6% |  |  | 
2 | C[Si](C)(CCCN)CCC[Si](C)(CCC[Si](C)(C)CCCN)CCC[Si](CCC[Si](C)(CCC[Si](C)(C)CCCN)CCC[Si](C)(C)CCCN)(CCC[Si](C)(CCC[Si](C)(C)CCCN)CCC[Si](C)(C)CCCN)CCC[Si](C)(CCC[Si](C)(C)CCCN)CCC[Si](C)(C)CCCN.Cl.Cl.Cl.Cl.Cl.Cl.Cl.Cl [ClNH4, 2G-[Si(CH2)3NH3^+Cl^−]8] |  | O.K | Aggregates + | 65.5% | 47% | 40% | 16% | 14% |  |  |  | 15.7% | stable at all pHs tested |  | 
3 | C[N+](C)(C)CCO[Si](C)(C)CCC[Si](C)(CCC[Si](CCC[Si](C)(CCC[Si](C)(C)OCC[N+](C)(C)C)CCC[Si](C)(C)OCC[N+](C)(C)C)(CCC[Si](C)(CCC[Si](C)(C)OCC[N+](C)(C)C)CCC[Si](C)(C)OCC[N+](C)(C)C)CCC[Si](C)(CCC[Si](C)(C)OCC[N+](C)(C)C)CCC[Si](C)(C)OCC[N+](C)(C)C)CCC[Si](C)(C)OCC[N+](C)(C)C.[I-].[I-].[I-].[I-].[I-].[I-].[I-].[I-] [IM8, 2G-[Si(OCH2CH2NMe3^+I^−)]8] |  | O.K | O.K | 98% | 60% | 18% | 12% | 10% |  | 144 cpm | 149 cpm | 17.1% |  | < 4.7 | 
4 | C[N+](C)(C)CCO[Si](C)(CCC[Si](C)(CCC[Si](CCC[Si](C)(CCC[Si](C)(OCC[N+](C)(C)C)OCC[N+](C)(C)C)CCC[Si](C)(OCC[N+](C)(C)C)OCC[N+](C)(C)C)(CCC[Si](C)(CCC[Si](C)(OCC[N+](C)(C)C)OCC[N+](C)(C)C)CCC[Si](C)(OCC[N+](C)(C)C)OCC[N+](C)(C)C)CCC[Si](C)(CCC[Si](C)(OCC[N+](C)(C)C)OCC[N+](C)(C)C)CCC[Si](C)(OCC[N+](C)(C)C)OCC[N+](C)(C)C)CCC[Si](C)(OCC[N+](C)(C)C)OCC[N+](C)(C)C)OCC[N+](C)(C)C.[I-].[I-].[I-].[I-].[I-].[I-].[I-].[I-].[I-].[I-].[I-].[I-].[I-].[I-].[I-].[I-] [IM16, 2G-[Si(OCH2CH2NMe3^+I^−)2]8] |  | O.K | O.K | 94% | 99% | 63% | 37% | 11% | greater mitochondrial viability | 175 cpm | 141 cpm | 18.5% |  |  | Cell aggregates +
